From ChEMBL document CHEMBL5321216, “Discovery of bipyridine amide derivatives targeting pRXRα-PLK1 interaction for anticancer therapy” (Eur J Med Chem, 2023)
Active and inactive are the calls of the source. No cut-off for these calls is given here.

Experiments:
[1] = target: T1, Retinoic acid receptor RXR-alpha (Homo sapiens) (UniProt P19793); experiment: Antagonist activity at RXRalpha (unknown origin) transfected in human HeLa cells at 31.25 uM incubated for 24 hrs by dual luciferase reporter assay; format: cell-based; settings: filed as antagonist
T1 sequence (whole entry): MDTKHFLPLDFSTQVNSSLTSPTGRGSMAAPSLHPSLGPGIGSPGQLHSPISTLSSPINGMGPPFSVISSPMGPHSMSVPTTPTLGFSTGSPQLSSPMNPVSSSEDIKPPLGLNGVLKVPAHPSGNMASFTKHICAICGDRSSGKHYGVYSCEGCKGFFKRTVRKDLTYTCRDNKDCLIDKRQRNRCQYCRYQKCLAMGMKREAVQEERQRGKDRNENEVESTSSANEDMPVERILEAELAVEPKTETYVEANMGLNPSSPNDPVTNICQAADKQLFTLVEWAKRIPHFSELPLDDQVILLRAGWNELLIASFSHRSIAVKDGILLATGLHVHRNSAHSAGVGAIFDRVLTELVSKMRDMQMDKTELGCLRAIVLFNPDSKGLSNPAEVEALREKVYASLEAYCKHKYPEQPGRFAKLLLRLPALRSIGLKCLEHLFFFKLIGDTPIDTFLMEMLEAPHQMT

A549 [2] = experiment: Induction of apoptosis in human A549 cells assessed as live cells at 62.5 nM incubated for 24 hrs by annexin V-FITC/PI staining based flow cytometry analysis (reference value: 93.2%); format: functional
[3] = Selectivity index, ratio of IC50 for human NCI-H460 cells to IC50 for human MDA-MB-231 cells; format: functional
MDA-MB-231 [4] = experiment: Antitumor activity against human MDA-MB-231 cells xenografted in BALB/c nude mouse assessed as reduction in tumor volume at 25 mg/kg/day, ip administered for 15 days and measured once a day; format: functional, organism-based; settings: time 15.0 day
A549 [5] = experiment: Induction of apoptosis in human A549 cells assessed as live cells at 31.25 nM incubated for 24 hrs by annexin V-FITC/PI staining based flow cytometry analysis (reference value: 93.2%); format: functional
[6] = target: Nuclear receptor subfamily 4immunitygroup A member 1 (Homo sapiens) (UniProt P22736); experiment: Antagonist activity at Nur77 (unknown origin) transfected in human HeLa cells at 31.25 uM incubated for 24 hrs by dual luciferase reporter assay; format: cell-based
A549 [7] = experiment: Induction of apoptosis in human A549 cells assessed as late apoptotic cells at 31.25 nM incubated for 24 hrs by annexin V-FITC/PI staining based flow cytometry analysis (reference value: 5.28%); format: functional
MDA-MB-231 [8] = experiment: Induction of cell cycle arrest in human MDA-MB-231 cells assessed as accumulation of cells at G1 phase at 31.25 nM incubated for 12 hrs by flow cytometry analysis (reference value: 43.2%); format: functional
[9] = target: T1, Retinoic acid receptor RXR-alpha (Homo sapiens); experiment: Antagonist activity at RXRalpha (unknown origin) transfected in human HeLa cells assessed as inhibition of CD3254- induced receptor transactivation incubated for 24 hrs by dual luciferase reporter assay; format: cell-based; settings: filed as antagonist, dose 12.5-100 µM
MDA-MB-231 [10] = experiment: Induction of apoptosis in human MDA-MB-231 cells assessed as late apoptotic cells at 250 nM incubated for 24 hrs by annexin V-FITC/PI staining based flow cytometry analysis (reference value: 5.93%); format: functional
HepG2 = experiment: Antiproliferative activity against human HepG2 cells assessed as inhibition of cell proliferation incubated for 72 hrs by MTT assay; format: functional, cell-based; settings: HepG2, 72 h
A549 [11] = experiment: Induction of apoptosis in human A549 cells assessed as live cells at 250 nM incubated for 24 hrs by annexin V-FITC/PI staining based flow cytometry analysis (reference value: 93.2%); format: functional
A549 [12] = experiment: Induction of cell cycle arrest in wild type human A549 cells assessed as accumulation of cells at G1 phase at 125 nM incubated for 12 hrs by DAPI staining based flow cytometry analysis (reference value: 36.89 %); format: functional
MDA-MB-231 [13] = experiment: Upregulation of phosphorylated RXRalpha protein level in human MDA-MB-231 cells at 125 to 500 nM measured after 24 hrs by Western blot analysis; format: functional, cell-based; settings: dose 125-500 nM
MDA-MB-231 [14] = experiment: Induction of apoptosis in human MDA-MB-231 cells assessed as live cells at 62.5 nM incubated for 24 hrs by annexin V-FITC/PI staining based flow cytometry analysis (reference value: 91.3%); format: functional
A549 [15] = experiment: Induction of apoptosis in human A549 cells assessed as dead cells at 250 nM incubated for 24 hrs by annexin V-FITC/PI staining based flow cytometry analysis (reference value: 0.75%); format: functional
A549 [16] = experiment: Induction of cell cycle arrest in RXRalpha knockout human A549 cells assessed as accumulation of cells at G1 phase at 125 nM incubated for 12 hrs by DAPI staining based flow cytometry analysis (reference value: 52.29 %); format: functional
MDA-MB-231 [17] = experiment: Antiproliferative activity against human MDA-MB-231 cells assessed as cell viability rate at 5 uM incubated for 72 hrs by MTT assay relative to control; format: functional
A549 [18] = experiment: Antiproliferative activity against human A549 cells assessed as inhibition of cell proliferation incubated for 72 hrs by MTT assay; format: functional, cell-based; settings: A549, 72 h
[19] = target: T2, Retinoic acid receptor RXR-alpha (Homo sapiens, UniProt P19793); experiment: Binding affinity to RXRalpha LBD (unknown origin) assessed as dissociation constant by fluorescence quenching analysis
T2 sequence (P19793 whole entry): T1 sequence (whole entry)

A549 [20] = experiment: Induction of apoptosis in human A549 cells assessed as late apoptotic cells at 125 nM incubated for 24 hrs by annexin V-FITC/PI staining based flow cytometry analysis (reference value: 5.28%); format: functional
A549 [21] = experiment: Induction of apoptosis in human A549 cells assessed as early apoptotic cells at 62.5 nM incubated for 24 hrs by annexin V-FITC/PI staining based flow cytometry analysis (reference value: 0.78%); format: functional
[22] = Selectivity index, ratio of IC50 for human HepG2 cells to IC50 for human MDA-MB-231 cells; format: functional
MDA-MB-231 [23] = experiment: Induction of apoptosis in human MDA-MB-231 cells assessed as reduction in Mcl-1 protein expression measured after 24 hrs by Western blot analysis; format: functional, cell-based; settings: dose 7.8-500 nM
MDA-MB-231 [24] = experiment: Antitumor activity against human MDA-MB-231 cells xenografted in BALB/c nude mouse assessed as tumor growth inhibition at 25 mg/kg/day, ip administered for 15 days and measured once a day relative to control; format: functional; settings: MDA-MB-231, 360 h, time 15 day, read-out: TGI
MDA-MB-231 [25] = experiment: Induction of apoptosis in human MDA-MB-231 cells assessed as dead cells at 125 nM incubated for 24 hrs by annexin V-FITC/PI staining based flow cytometry analysis (reference value: 0.69%); format: functional
MDA-MB-231 [26] = experiment: Effect on Nur77 protein expression in human MDA-MB-231 cells at 7.8 to 500 nM measured after 24 hrs by Western blot analysis; format: functional, cell-based; settings: dose 7.8-500 nM
MDA-MB-231 [27] = experiment: Induction of cell cycle arrest in human MDA-MB-231 cells assessed as accumulation of cells at S phase at 125 nM incubated for 12 hrs by flow cytometry analysis (reference value: 40.89%); format: functional
MDA-MB-231 [28] = experiment: Induction of apoptosis in human MDA-MB-231 cells assessed as increase in cleaved PARP expression measured after 24 hrs by Western blot analysis; format: functional, cell-based; settings: dose 7.8-500 nM

Chain of Nuclear receptor subfamily 4immunitygroup A member 1 (Homo sapiens) (P22736 whole entry): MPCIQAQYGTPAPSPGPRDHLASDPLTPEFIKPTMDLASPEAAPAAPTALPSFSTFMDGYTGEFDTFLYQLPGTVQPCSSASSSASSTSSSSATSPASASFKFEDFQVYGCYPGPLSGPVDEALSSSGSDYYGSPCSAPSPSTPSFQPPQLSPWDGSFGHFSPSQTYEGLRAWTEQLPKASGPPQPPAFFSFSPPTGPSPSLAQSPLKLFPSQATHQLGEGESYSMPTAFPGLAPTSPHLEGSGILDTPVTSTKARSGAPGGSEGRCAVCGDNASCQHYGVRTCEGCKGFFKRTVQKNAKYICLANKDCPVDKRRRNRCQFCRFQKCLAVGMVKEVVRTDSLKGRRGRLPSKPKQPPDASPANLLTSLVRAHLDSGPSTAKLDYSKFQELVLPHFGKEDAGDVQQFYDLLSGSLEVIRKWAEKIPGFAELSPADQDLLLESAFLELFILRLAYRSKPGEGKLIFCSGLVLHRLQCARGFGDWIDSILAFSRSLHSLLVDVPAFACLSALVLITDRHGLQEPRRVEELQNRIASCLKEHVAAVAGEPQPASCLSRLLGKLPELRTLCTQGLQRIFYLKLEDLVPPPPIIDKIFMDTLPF

With `O=C(/C=C/c1ccccc1)Nc1cc(-c2ccnc(N3CCC(CO)CC3)c2)ccn1` the Activity [1] was “Active”, the Activity (A549 [2]) was 67.7% and the “Ratio IC50” value [3] was 15.81. The Activity (MDA-MB-231 [4]) was “Active”, the Activity (A549 [5]) was 70.9% and the Activity [6] was “inactive”. For the same molecule, the Activity (A549 [7]) was 18.9%, the Activity (MDA-MB-231 [8]) was 42.63% and the inhibition [9] was “Dose-Dependent Effect”. For the same molecule, the Activity (MDA-MB-231 [10]) was 20.2%, the IC50 (HepG2) was 128 nM and the Activity (A549 [11]) was 44.9%. For the same molecule, the Activity (A549 [12]) was 2.24%, the Activity (MDA-MB-231 [13]) was “Active” and the Activity (MDA-MB-231 [14]) was 69.2%. The Activity (A549 [15]) was 2.36%, the Activity (A549 [16]) was 17.83% and the Activity (MDA-MB-231 [17]) was 31.72%. The IC50 (A549 [18]) was 201 nM, the Kd [19] was 147 nM and the Activity (A549 [20]) was 22.8%. The Activity (A549 [21]) was 11.4%, the “Ratio IC50” value [22] was 4.81 and the Activity (MDA-MB-231 [23]) was “Dose-Dependent Effect”. For the same molecule, the inhibition in vivo at 25 mg/kg/day (MDA-MB-231 [24]) was 59.3%, the Activity (MDA-MB-231 [25]) was 2.78% and the Activity (MDA-MB-231 [26]) was “inactive”. For the same molecule, the Activity (MDA-MB-231 [27]) was 14.05% and the Activity (MDA-MB-231 [28]) was “Dose-Dependent Effect”.
